Reference: patent publication US8247612B2, “Organic sulfur compound and its use for controlling harmful arthropod” (Sumitomo Chemical Company, Limited, priority 2007, dated 2012)

Assays:
Format in all cases: in vivo
[1] = tested on: Haemaphysalis longicornis; assay: Test Example 5: treated filter paper pouch, death rate of ticks; settings: filter paper treated with 100 mg/m^2; non-blood-sucking nymphal ticks, 10 ticks/group; after 2 days
Method: Five milligrams of any one of the present compounds (3), (10), (14), (15), (16) and (17) was dissolved in 10 mL of acetone. One milliliter of the acetone solution was uniformly applied on one side of a filter paper (TOYO No. 2; 5×10 cm), so that the filter paper was treated with 100 mg/m^2 of the present compound. After drying, the filter paper was folded in two and its edges were clipped to make a pouch. Non-blood-sucking nymphal ticks (Haemaphysalis longicornis, 10 ticks/group) were put into the pouch, and the pouch was sealed with clips. After 2 days, the number of surviving ticks was examined and the death rate was calculated. As a result, in treatments with the present compounds (3), (10), (14), (15), (16) and (17), the death rate of the tick was 90%.

Culex pipiens pallens = assay: Test Example 4: larvae in treated water, death rate of Culex pipiens pallens; settings: 24 h, active ingredient concentration 3.5 ppm in water, 20 last-instar larvae, after one day
Method: Preparations of the present compounds (1), (2), (3), (4), (5), (6), (9), (10), (11), (12), (14), (15), (16), (17), (19), (20), (22), (23), (24), (26), (27), (28), (29), (30) and (31) obtained according to Formulation Example 36 were diluted so that the active ingredient concentration was 500 ppm to obtain test solutions. To 100 mL of ion-exchanged water, 0.7 ml of the test solution was added (active ingredient concentration: 3.5 ppm). Into the solution, 20 last-instar larvae of Culex pipiens pallens were released. After one day, the number of surviving Culex pipiens pallens was examined and the death rate of the pest was calculated. As a result, in treatments with the present compounds (1), (2), (3), (4), (5), (6), (9), (10), (11), (12), (14), (15), (16), (17), (19), (20), (22), (23), (24), (26), (27), (28), (29), (30) and (31), the death rate of the pest was 90% or more.

Blattalla germanica = assay: Test Example 3: treated filter paper with sucrose bait, death rate of Blattalla germanica; settings: 144 h; 500 ppm test solution, 0.7 ml on filter paper; 2 male imagoes; after 6 days
Method: (§1) Preparations of the present compounds (2), (3), (5), (6), (10), (11), (12), (14), (15), (16), (17), (19), (20), (24), (25), (26), (29), (30) and (31) obtained according to Formulation Example 36 were diluted so that the active ingredient concentration was 500 ppm to obtain test solutions.
(§2) A filter paper having a diameter of 5.5 cm was spread on the bottom of a polyethylene cup having a diameter of 5.5 cm and 0.7 ml of the test solution was added dropwise onto the filter paper. As a bait 30 mg of sucrose was uniformly placed on the filter paper. Into the polyethylene cup, 2 male imagoes of Blattalla germanica were released and the cup was sealed with a lid. After 6 days, the number of surviving Blattalla germanica was examined and the death rate of the pest was calculated.
As a result, in treatments with the present compounds (2), (3), (5), (6), (10), (11), (12), (14), (15), (16), (17), (19), (20), (24), (25), (26), (29), (30) and (31), the death rate of the pest was 100%.

Musca domestica = assay: Test Example 2: treated filter paper with sucrose bait, death rate of Musca domestica; settings: 500 ppm test solution, 0.7 ml on filter paper, 10 female imagoes, after 24 hours
Method: as §1, with “(6), (9),” for “(6),”, “(12), (13),” for “(12),”, “(26), (28),” for “(26),”
as §2, with “10 female” for “2 male”, “Musca domestica” for “Blattalla germanica”, “24 hours,” for “6 days,”
As a result, in treatments with the present compounds (2), (3), (5), (6), (9), (10), (11), (12), (13), (14), (15), (16), (17), (19), (20), (24), (25), (26), (28), (29), (30) and (31), the death rate of the pest was 70% or more.

Row | SMILES | death rate of the tick [1] | pest or weed control at 3.5 ppm (Culex pipiens pallens) | pest or weed control at 500 ppm (Blattalla germanica) | pest or weed control at 500 ppm (Musca domestica)
1 | CC(CCC(C#N)S(=O)(=O)CCC(F)(F)F)C(F)(F)F (centres unmarked) [present compound (10), 6,6,6-trifluoro-5-methyl-2-(3,3,3-trifluoropropylsulfonyl)hexanenitrile] | 90% | ≥ 90% | 100% | ≥ 70%
2 | CCC(CCC(C#N)S(=O)(=O)CCC(F)(F)F)C(F)(F)F (centres unmarked) [present compound (14), 5-(trifluoromethyl)-2-(3,3,3-trifluoropropylsulfonyl)heptanenitrile] | 90% | ≥ 90% | 100% | ≥ 70%
3 | CCC(CCC(F)(C#N)S(=O)(=O)CCC(F)(F)F)C(F)(F)F (centres unmarked) [present compound (15), 2-fluoro-5-(trifluoromethyl)-2-(3,3,3-trifluoropropylsulfonyl)heptanenitrile] | 90% | ≥ 90% | 100% | ≥ 70%
4 | CCC(CCC(Cl)(C#N)S(=O)(=O)CCC(F)(F)F)C(F)(F)F (centres unmarked) [present compound (16), 2-chloro-5-(trifluoromethyl)-2-(3,3,3-trifluoropropylsulfonyl)heptanenitrile] | 90% | ≥ 90% | 100% | ≥ 70%
5 | CCC(CCC(C)(C#N)S(=O)(=O)CCC(F)(F)F)C(F)(F)F (centres unmarked) [present compound (17), 2-methyl-5-(trifluoromethyl)-2-(3,3,3-trifluoropropylsulfonyl)heptanenitrile] | 90% | ≥ 90% | 100% | ≥ 70%
